Data reported in US9771351B2, “Wnt signaling inhibitor” (KYOWA HAKKO KIRIN CO., LTD., priority 2013, dated 2017).

Tested on: T-cell factor (TCF)-luciferase reporter using Wnt pathway as index
Experiment: Inhibitory activity against TCF-luciferase reporter using Wnt pathway as index (DLD-1/TCF-Luc cells)
Format: cell-based, human
Conditions: 1 μmol/L; DLD-1/TCF-Luc cells; luciferase activity after 18 hours
Protocol: Test Example 1: Inhibitory Activity Against T-Cell Factor (TCF)-Luciferase Reporter Using Wnt Pathway as Index
The inhibitory activity of test compounds against Wnt pathway was evaluated by the following method.
A human colorectal adenocarcinoma cell line DLD-1 (Japanese Collection of Research Bioresources) was cultured in RPMI-1640 medium (Gibco/Life Technologies, Inc.) containing 10% fetal bovine serum (Gibco/Life Technologies, Inc.), 10 mmol/L of a 4-(2-hydroxyethyl)-1-piperazineethanesulfonic acid (HEPES) buffer solution (Gibco/Life Technologies, Inc.), 1 mmol/L of a sodium pyruvate solution (Gibco/Life Technologies, Inc.), 4.5 g/L of a D-(+)-glucose solution (Sigma-Aldrich, Inc.), 100 units/mL penicillin (Gibco/Life Technologies, Inc.) and 100 μg/mL of streptomycin (Gibco/Life Technologies, Inc.) under the conditions of 37° C. and 5% carbon dioxide gas. The DLD-1 cells were seeded in a 10 cm dish, and 20 μg of a luciferase gene plasmid pGL4.27 having a TCF responsive sequence inserted therein was transfected into the cells using 10 μL of Attractene (Qiagen, Inc.) according to the protocol attached to the product. A stably expressing cell line (DLD-1/TCF-Luc) was selected using […] of hygromycin B (Wako Pure Chemical Industries Ltd.). The DLD-1/TCF-Luc cells were detached with trypsin and seeded in a 384-well plate, and a test compound was added at different concentrations. After 18 hours, the luciferase activity was measured using Steady-Glo™ Luciferase Assay System (Promega, Inc.).
The inhibition ratio was obtained according to the following formula 1. The inhibition ratio (%) of the compound of the present invention at 1 μmol/L against the TCF-luciferase reporter using the Wnt pathway as an index is shown in Table 6. [Math. 1] Inhibition ratio (%)=100−{(luciferase activity when test compound was added)−(luciferase activity of blank)}/{(luciferase activity of control)−(luciferase activity of blank)}×100 Formula 1

**Q.** Which “Inhibition ratio (%) at 1 μmol/L” value does the source give for “4-(3-{[1-(6-Aminopyrimido[3,4-d]pyrimidin-4-yl)piperidin-4-yl]methyl}-2-oxo-3,4-dihydroquinazolin-1(2H)-yl)picolinonitrile [Compound 33]” here?
**A.** 82%

**Q.** For `N#Cc1ccccc1CN1C(=O)N(CC2CCN(c3ncnc4cc5c(cc34)OCO5)CC2)Cc2ccccc21` [Compound 3, 2-[(3-{[1-([1,3]Dioxo[4,5-g]quinazolin-8-yl)piperidin-4-yl]methyl}-2-oxo-3,4-dihydroquinazolin-1(2H)-yl)methyl]benzo nitrile], which “Inhibition ratio (%) at 1 μmol/L” value is on record?
**A.** 77%

**Q.** How did the “Inhibition ratio (%) at 1 μmol/L” value turn out when `CNC(=O)c1ccc2c(N3CCC(CN4Cc5ccccc5N(c5cccc(C#N)c5)C4=O)CC3)ncnc2c1` [Compound 26, 4-(4-{[1-(3-Cyanophenyl)-2-oxo-1,2-dihydroquinazolin-3(4H)-yl]methyl}piperidin-1-yl)-N-methylquinazoline-7-carboxamido] was run?
**A.** 77%

**Q.** `N#Cc1cc(N2C(=O)N(CC3CCN(c4ncnc5cc(C(N)=O)ccc45)CC3)Cc3ccccc32)ccn1` [Compound 28, 4-(4-{[1-(2-Cyanopyridin-4-yl)-2-oxo-1,2-dihydroquinazolin-3(4H)-yl]methyl}piperidin-1-yl)quinazoline-7-carboxamido] was tested. Which “Inhibition ratio (%) at 1 μmol/L” value did it give?
**A.** 84%

**Q.** How did the “Inhibition ratio (%) at 1 μmol/L” value turn out when `N#Cc1cc(N2C(=O)N(CC3CCN(c4ncnc5cnc(C(N)=O)cc45)CC3)Cc3ccccc32)ccc1F` [Compound 45, 4-(4-{[1-(3-Cyano-4-fluorophenyl)-2-oxo-1,2-dihydroquinazolin-3(4H)-yl]methyl}piperidin-1-yl)pyrido[3,4-d]pyrimidine-6-carboxamido] was run?
**A.** 86%

**Q.** `N#Cc1cc(N2C(=O)N(CC3CCN(c4ncnc5cnc(C(N)=O)cc45)CC3)Cc3ncccc32)ccc1F` [Compound 46, 4-(4-{[1-(3-Cyano-4-fluorophenyl)-2-oxo-1,2-dihydropyrido[3,2-d]pyrimidin-3(4H)-yl]methyl}piperidin-1-yl)pyrido[3,4-d]pyrimidine-6-carboxamido] was tested. Which “Inhibition ratio (%) at 1 μmol/L” value did it give?
**A.** 84%

Same assay, conditions: Homo sapiens, DLD-1, 18 h, read-out: Inhibition ratio (%) at 1 μmol/L

**Q.** Which inhibition at 1 µM does the source give for `CN1CCN(C(=O)c2ccc3c(N4CCC(CN5Cc6ccccc6N(c6ccnc(C#N)c6)C5=O)CC4)ncnc3c2)CC1` [Compound 27, 4-[3-({1-[7-(4-Methylpiperazine-1-carbonyl)quinazolin-4-yl]piperidin-4-yl}methyl)-2-oxo-3,4-dihydroquinazolin-1(2H)-yl]picolinonitrile] here?
**A.** 88%

**Q.** Which inhibition at 1 µM does the source give for `N#Cc1cc(N2C(=O)N(CC3CCN(c4ncnc5[nH]ccc45)CC3)Cc3ccccc32)ccn1` [Compound 31, 4-(3-{[1-(7H-pyrrolo[2,3-d]pyrimidin-4-yl)piperidin-4-yl]methyl}-2-oxo-3,4-dihydroquinazolin-1(2H)-yl)picolinonitrile] here?
**A.** 74%

**Q.** `N#Cc1cc(N2C(=O)N(CC3CCN(c4nccn5c(=O)[nH]nc45)CC3)Cc3ccccc32)ccn1` [Compound 39, 4-(2-Oxo-3-{[1-(3-oxo-2,3-dihydro-[1,2,4]triazolo[4,3-a]pyrazin-8-yl)piperidin-4-yl]methyl}-3,4-dihydroquinazolin-1(2H)-yl)picolinonitrile] was tested. Which inhibition at 1 µM did it give?
**A.** 89%

**Q.** For `N#Cc1cc(N2C(=O)N(CC3CCN(c4nccc5c(=O)[nH]cnc45)CC3)Cc3ccccc32)ccn1` [Compound 42, 4-(2-Oxo-3-{[1-(4-oxo-3,4-dihydropyrido[3,4-d]pyrimidin-8-yl)piperidin-4-yl]methyl}-3,4-dihydroquinazolin-1(2H)-yl)picolinonitrile], which inhibition at 1 µM is on record?
**A.** 81%

**Q.** `N#Cc1cccc(N2C(=O)N(CC3CCN(c4ncnc5c4COCC5)CC3)Cc3ccccc32)c1` [Compound 43, 3-(3-{[1-(7,8-Dihydro-5H-pyrano[4,3-d]pyrimidin-4-yl)piperidin-4-yl]methyl}-2-oxo-3,4-dihydroquinazolin-1(2H)-yl)benzonitrile] was tested. Which inhibition at 1 µM did it give?
**A.** 85%

Same assay, conditions: Homo sapiens; 1 μmol/L; DLD-1/TCF-Luc cells; luciferase activity after 18 hours; read-out: Inhibition ratio (%) at 1 μmol/L

**Q.** For `N#Cc1ccccc1CN1C(=O)N(CC2CCN(c3nnnc4ccccc34)CC2)Cc2ccccc21` [Compound 4, 2-[(3-{[1-(Benzo[d][1,2,3]triazin-4-yl)piperidin-4-yl]methyl}-2-oxo-3,4-dihydroquinazolin-1(2H)-yl)methyl]benzonitrile], which inhibition at 1 µM is on record?
**A.** 74%

**Q.** With `COc1cc2ncnc(N3CCC(CN4Cc5ccccc5N(c5cccc(C#N)c5)C4=O)CC3)c2cc1OC` [Compound 6, 3-(3-{[1-(6,7-Dimethoxyquinazolin-4-yl)piperidin-4-yl]methyl}-2-oxo-3,4-dihydroquinazolin-1(2H)-yl)benzonitrile] as the compound, how does the inhibition at 1 µM read?
**A.** 76%

**Q.** Which inhibition at 1 µM does the source give for `COc1cc2ncnc(N3CCC(CN4Cc5ccccc5N(c5cc(C#N)ccn5)C4=O)CC3)c2cc1OC` [Compound 10, 2-(3-{[1-(6,7-Dimethoxyquinazolin-4-yl)piperidin-4-yl]methyl}-2-oxo-3,4-dihydroquinazolin-1(2H)-yl)isonicotinonitrile] here?
**A.** 79%

**Q.** `COc1cc2ncnc(N3CCC(CN4Cc5ccccc5N(c5ccnc(C#N)n5)C4=O)CC3)c2cc1OC` [Compound 11, 4-(3-{[1-(6,7-Dimethoxyquinazolin-4-yl)piperidin-4-yl]methyl}-2-oxo-3,4-dihydroquinazolin-1(2H)-yl)pyrimidine-2-carbonitrile] was tested. Which inhibition at 1 µM did it give?
**A.** 87%

**Q.** `COc1cc2ncnc(N3CCC(CN4Cc5ccccc5N(c5ccnc(C(N)=O)c5)C4=O)CC3)c2cc1OC` [Compound 14, 4-(3-{[1-(6,7-Dimethoxyquinazolin-4-yl)piperidin-4-yl]methyl}-2-oxo-3,4-dihydroquinazolin-1(2H)-yl)picolinamide] was tested. Which inhibition at 1 µM did it give?
**A.** 76%

**Q.** For `COc1cc2ncnc(N3CC(CN4Cc5ccccc5N(c5ccnc(C#N)c5)C4=O)C3)c2cc1OC` [Compound 17, 4-(3-{[1-(6,7-Dimethoxyquinazolin-4-yl)azetidin-3-yl]methyl}-2-oxo-3,4-dihydroquinazolin-1(2H)-yl)picolinonitrile], which inhibition at 1 µM is on record?
**A.** 76%

**Q.** How did the inhibition at 1 µM turn out when `COc1cc2ncnc(N3CCC(NC4Cc5ccccc5N(c5ccnc(C#N)c5)C4=O)CC3)c2cc1OC` (centres unmarked) [Compound 19, 4-{3-[1-(6,7-Dimethoxyquinazolin-4-yl)piperidin-4-ylamino]-2-oxo-3,4-dihydroquinolin-1(2H)-yl}picolinonitrile] was run?
**A.** 91%

**Q.** `COc1cc2ncnc(N3CCC(Cn4c(=O)c5ccccc5n(-c5cccc(C#N)c5)c4=O)CC3)c2cc1OC` [Compound 20, 3-(3-{[1-(6,7-Dimethoxyquinazolin-4-yl)piperidin-4-yl]methyl}-2,4-dioxo-3,4-dihydroquinazolin-1(2H)-yl)benzonitrile] was tested. Which inhibition at 1 µM did it give?
**A.** 83%

**Q.** How did the inhibition at 1 µM turn out when `N#Cc1cc(N2C(=O)N(CC3CCN(c4ncnc5cnccc45)CC3)Cc3cc(F)cnc32)ccn1` [Compound 23, 4-(6-Fluoro-2-oxo-3-{[1-(pyrido[3,4-d]pyrimidin-4-yl)piperidin-4-yl]methyl}-3,4-dihydropyrido[2,3-d]pyrimidin-1(2H)-yl)picolinonitrile] was run?
**A.** 84%

**Q.** For `N#Cc1cc(N2C(=O)N(CC3CCN(c4nccc5nc[nH]c(=O)c45)CC3)Cc3cc(F)ccc32)ccn1` [Compound 49, 4-(6-Fluoro-2-oxo-3-{[1-(4-oxo-3,4-dihydropyrido[4,3-d]pyrimidin-5-yl)piperidin-4-yl]methyl}-3,4-dihydroquinazolin-1(2H)-yl)picolinonitrile], which inhibition at 1 µM is on record?
**A.** 82%

**Q.** How did the inhibition at 1 µM turn out when `N#Cc1ccc2c(c1)CN(CC1CCN(c3nccc4nc[nH]c(=O)c34)CC1)C(=O)N2c1ccnc(C(N)=O)c1` [Compound 51, 4-(6-Cyano-2-oxo-3-{[1-(4-oxo-3,4-dihydropyrido[4,3-d]pyrimidin-5-yl)piperidin-4-yl]methyl}-3,4-dihydroquinazolin-1(2H)-yl)picolinamide] was run?
**A.** 90%

**Q.** Which inhibition at 1 µM does the source give for `N#Cc1cc(N2C(=O)N(CC3CCN(c4ncnc5cc(C(N)=O)ncc45)CC3)Cc3cnccc32)ccc1F` [Compound 52, 4-(4-{[1-(3-Cyano-4-fluorophenyl)-2-oxo-1,2-dihydropyrido[4,3-d]pyrimidin-3(4H)-yl]methyl}piperidin-1-yl)pyrido[4,3-d]pyrimidine-7-carboxamido] here?
**A.** 81%
